Read-outs that look alike come from different tables or passages of the source. Marks after values point to notes of the source that are not given here.
Legend:
Hep 3B cells = assay: MTT cell viability assay, Hep 3B cells (serum-free DMEM); conditions: for viability at 0.1 µM / viability at 0.5 µM / viability at 1 µM / viability at 2 µM / IC50: Homo sapiens, Hep3B
Text: (§1) Human hepatoma cell lines Hep G2 and Hep 3 were chosen as the in vitro models of hepatocytes and hepatoma, respectively.

[1] = MTT cell viability assay, Hep G2 cells (serum-free DMEM); conditions: human, Hep G2 cells, Cell viability
Text: as §1

Hep G2 cells = assay: as above; conditions: Homo sapiens
Text: as §1

## COc1cccc2c1C(=O)c1c(O)c3c(c(O)c1C2=O)C[C@@](O)(C(=O)CO)C[C@@H]3O[C@H]1C[C@H](N)[C@H](O)[C@H](C)O1 [DOX, doxorubicin]
Hep 3B cells; DOX 0.5 μM, 48 hr
  Ratio, inhibition (%) Hep 3B/inhibition (%) Hep G2: 0.6***
Hep 3B cells; DOX 0.5 μM, 72 hr
  Ratio, inhibition (%) Hep 3B/inhibition (%) Hep G2: 0.7*
Hep 3B cells; DOX 1 μM, 48 hr
  Ratio, inhibition (%) Hep 3B/inhibition (%) Hep G2: 0.6***
Hep 3B cells; DOX 1 μM, 72 hr
  Ratio, inhibition (%) Hep 3B/inhibition (%) Hep G2: 0.6**
Hep 3B cells; DOX 2 μM, 48 hr
  Ratio, inhibition (%) Hep 3B/inhibition (%) Hep G2: 0.7***
Hep 3B cells; DOX 2 μM, 72 hr
  Ratio, inhibition (%) Hep 3B/inhibition (%) Hep G2: 0.9**
Hep 3B cells; 48 h, read-out: Cell viability, DOX 0.1 μM, 48 hr
  viability at 0.1 µM: 99.9 ± 7.8%
Hep 3B cells; 48 h, read-out: Cell viability, DOX 0.5 μM, 48 hr
  viability at 0.5 µM: 66.7 ± 1.6%
Hep 3B cells; 48 h, read-out: Cell viability, DOX 1 μM, 48 hr
  viability at 1 µM: 59.3 ± 4.1%
Hep 3B cells; 48 h, read-out: Cell viability, DOX 2 μM, 48 hr
  viability at 2 µM: 40.1 ± 3%
Hep 3B cells; 48 h, read-out: IC50 (cell viability), 48 hr
  IC50: 1500 nM
Hep 3B cells; 72 h, read-out: Cell viability, DOX 0.1 μM, 72 hr
  viability at 0.1 µM: 100 ± 5.8%
Hep 3B cells; 72 h, read-out: Cell viability, DOX 0.5 μM, 72 hr
  viability at 0.5 µM: 62.1 ± 6.9%
Hep 3B cells; 72 h, read-out: Cell viability, DOX 1 μM, 72 hr
  viability at 1 µM: 48.9 ± 8.4%
Hep 3B cells; 72 h, read-out: Cell viability, DOX 2 μM, 72 hr
  viability at 2 µM: 9.9 ± 2.7%
Hep 3B cells; 72 h, read-out: IC50 (cell viability), 72 hr
  IC50: 1000 nM
[1]; DOX 0.1 μM, 48 hr
  viability at 48 hr, 0.1 μM: 100 ± 5.3%
[1]; DOX 0.1 μM, 72 hr
  viability at 72 hr, 0.1 μM: 99.9 ± 7.5%
[1]; DOX 0.5 μM, 48 hr
  viability at 48 hr, 0.5 μM: 42.8 ± 3.7%
[1]; DOX 0.5 μM, 72 hr
  viability at 72 hr, 0.5 μM: 46.7 ± 4%
[1]; DOX 1 μM, 48 hr
  viability at 48 hr, 1 μM: 29.1 ± 1.7%
[1]; DOX 1 μM, 72 hr
  viability at 72 hr, 1 μM: 20 ± 1.1%
[1]; DOX 2 μM, 48 hr
  viability at 48 hr, 2 μM: 16.7 ± 2.4%
[1]; DOX 2 μM, 72 hr
  viability at 72 hr, 2 μM: 1.9 ± 0.8%
Hep G2 cells; HepG2, 48 h, read-out: IC50 (cell viability), 48 hr
  IC50: 400 nM
Hep G2 cells; HepG2, 72 h, read-out: IC50 (cell viability), 72 hr
  IC50: 500 nM

Source: patent publication US20020173538A1, “Method for sensitizing cancer cells to cancer therapies with a mevalonate-reducing compound” (priority 2000, published 2002)
